Experimental findings from patent US11852971B2, “Compound, photosensitive resin composition including the same, photosensitive resin layer, color filter and display device” (SAMSUNG SDI CO., LTD., priority 2019, dated 2023) are described below.

The nature of series [1]: Measurement of the shortest wavelength of full width at half maximum (FWHM) with respect to maximum absorption wavelength (absorption spectrum). To be noted: 0.005 wt % in PGMEA; UV-1800. The class given is physicochemical. From the text: The shortest wavelength of the full width at half maximum (FWHM) with respect to the maximum absorption wavelengths denotes a wavelength having the smallest value (a) among the energy widths (Δλ) of the maximum absorption wavelength (b) in the absorption spectrum of a particular phthalocyanine compound. (Refer to the FIGURE)
Evaluation 1: Measurement of the Shortest Wavelength of Full Width at Half Maximum (FWHM) with respect to Maximum Absorption Wavelength
The compounds according to Synthesis Example 1 to Synthesis Example 21 and Comparative Synthesis Example 1 to Comparative Synthesis Example 6 were prepared at a concentration of 0.005 wt % using a diluting solvent (PGMEA). Absorption spectra were obtained for each of the phthalocyanine compounds according to Synthesis Example 1 to […] and Comparative Synthesis Example 1 to Comparative Synthesis Example 6, and the results are shown in Table 1 (UV-1800, SHTMADZU).

Series [2] can be described thus: Solubility measurement in dilution solvent (PGMEA). The class given is physicochemical. To be noted: PGMEA added to 0.5 g compound, stirred 100 rpm, one hour, 25° C. On the procedure:
Evaluation 2: Solubility Measurement Solubility of the compounds according to Synthesis Examples 11 to 21 and Comparative Synthesis Examples 1 to 6 were measured by adding a dilution solvent (PGMEA) to 0.5 g of each compound and respectively stirring the mixtures (MIXROTAR VMR-5, Iuchi Seiei Dou Co.) at 100 rpm for one hour at 25° C., and the results are shown in Table 2. Solubility Evaluation Criteria Greater than or equal to 10 wt % of a compound (a solute) based on a total amount of a diluting solvent was dissolved: ∘ Less than 10 wt % of a compound (a solute) based on a total amount of a diluting solvent was dissolved: X

`CC(C)CCOc1c(Cl)c(Cl)c2c(c1Cl)/C1=N/c3c4c(Cl)c(OCCC(C)C)c(Cl)c(Cl)c4c4[n]3[Zn][n]3/c(c5ccccc5/c3=N/C2=N1)=N\C1=NC(=N\4)/c2c(Cl)c(Cl)c(Cl)c(Cl)c21` [Synthesis Example 15]: the “The shortest wavelength (nm) of full width at half maximum (FWHM) with respect to maximum absorption wavelength” value (“The shortest wavelength (nm)” below) in series [1] worked out at 617 nm. Also, the Solubility entry in series [2] is listed as “○”.

In the case of `CC(C)CCOc1c(Cl)c(Cl)c2c(c1Cl)/C1=N/c3c4c(Cl)c(Cl)c(Cl)c(Cl)c4c4[n]3[Zn][n]3/c(c5ccccc5/c3=N/C2=N1)=N\C1=NC(=N\4)/c2c(Cl)c(Cl)c(Cl)c(Cl)c21` [Synthesis Example 16], in series [1], the “The shortest wavelength (nm)” value came to 618 nm. For the same compound, in series [2], the Solubility entry was “○”.

`CC(C)CCOc1c(Cl)c(Cl)c2c(c1Cl)/C1=N/c3c4c(Cl)c(OCCC(C)C)c(Cl)c(Cl)c4c4[n]3[Zn][n]3/c(c5ccccc5/c3=N/C2=N1)=N\C1=NC(=N\4)/c2ccccc21` [Synthesis Example 17]: in series [1], the “The shortest wavelength (nm)” value is listed as 611 nm. Besides, in series [2], the Solubility result is given as “○”.

Regarding `CC(C)COc1c(Cl)c(Cl)c2c(c1Cl)/C1=N/c3c4c(Cl)c(OCC(C)C)c(Cl)c(Cl)c4c4[n]3[Zn][n]3/c(c5ccccc5/c3=N/C2=N1)=N\C1=NC(=N\4)/c2c(Cl)c(Cl)c(Cl)c(Cl)c21` [Synthesis Example 18], in series [1], the “The shortest wavelength (nm)” value is listed as 617 nm. The Solubility entry in series [2] was “○”.

Take `CC(C)COc1c(Cl)c(Cl)c2c(c1Cl)/C1=N/c3c4c(Cl)c(Cl)c(Cl)c(Cl)c4c4[n]3[Zn][n]3/c(c5ccccc5/c3=N/C2=N1)=N\C1=NC(=N\4)/c2c(Cl)c(Cl)c(Cl)c(Cl)c21` [Synthesis Example 19]: the “The shortest wavelength (nm)” value in series [1] is 618 nm. Further, in series [2], the Solubility result was “○”.

For `CC(C)COc1c(Cl)c(Cl)c2c(c1Cl)/C1=N/c3c4c(Cl)c(OCC(C)C)c(Cl)c(Cl)c4c4[n]3[Zn][n]3/c(c5ccccc5/c3=N/C2=N1)=N\C1=NC(=N\4)/c2ccccc21` [Synthesis Example 20], the “The shortest wavelength (nm)” value in series [1] is 611 nm. The Solubility entry in series [2] was “○”.

Take `CC(C)(C)c1ccc(Oc2c(Cl)c(Cl)c3c(c2Cl)/C2=N/c4c5ccccc5c5[n]4[Zn][n]4/c(c6ccccc6/c4=N/C3=N2)=N\C2=NC(=N\5)/c3ccccc32)c(C(C)(C)C)c1` [Synthesis Example 21]: the “The shortest wavelength (nm)” value in series [1] is listed as 608 nm. The Solubility entry in series [2] is on record as “X (Less than 10 wt % of a compound (a solute) based on a total amount of a diluting solvent was dissolved)”.
